Data from ChEMBL document CHEMBL4257221, “Peptides comprising non-natural amino acids and methods of making and using the same” (2016).
pEC50: −log10 of the molar value. Activity calls are given as the source filed them. The calls are words filed in the database; no cut-off is given here. Numbered stars: 1 amine (or outer) side, 2 acyl side, 3 side chain; on linkers, the order of the positions; unused ones are H or OH. Square brackets hold non-standard residues; d marks the D form. Peptide text beside a SMILES is read from it. ξ: configuration not given here. X1 = O=C([C@H]1CCC[C@@H]1N[*:1])[*:2]; X2 = O=C([C@H]1CNC[C@@H]1N[*:1])[*:2]; ξβ3hY = NC(CC(=O)O)Cc1ccc(O)cc1; ξβ3hQ = NC(=O)CCC(N)CC(=O)O; ξβ3hN = NC(=O)CC(N)CC(=O)O; ξβ3hL = CC(C)CC(N)CC(=O)O; ξβ3hK = NCCCCC(N)CC(=O)O; ξβ3hT = CC(O)C(N)CC(=O)O; ξβ3hV = CC(C)C(N)CC(=O)O; ξβ3hS = NC(CO)CC(=O)O; βAla = NCCC(=O)O

Columns and labels:
Mus musculus [1] = experiment: Anti-parkinson's activity in MPTP-induced C57BL/6 mouse model of Parkinson's disease receiving adaptive transfer of splenocytes from 15 ug/day/5 days, ip compound treated donor mouse assessed as TH-positive neurons survival rate in substantia nigra measured on day 7 post MPTP intoxication by FJ-C staining based assay (reference value: 24.5%); type: functional
Mus musculus [2] = experiment: Stimulation of Treg cells function in C57BL/6 mouse splenocytes assessed as suppression of anti-CD3-stimulated effector T cell proliferation pretreated ip daily for 5 days followed by splenocytes isolation and co-culture with untreated splenocytes at 1:1 ratio; type: functional, organism-based
Mus musculus [3] = experiment: Stimulation of Treg cells function in C57BL/6 mouse splenocytes assessed as suppression of anti-CD3-stimulated CD4+/CD25- naive T cells proliferation at 300 ug, ip pretreated daily for 5 days followed by splenocytes isolation and co-culture with CD4+/CD25- naive T cells; type: functional, organism-based
[4] = biological target: T1, Vasoactive intestinal polypeptide receptor 1 (Homo sapiens, UniProt P32241); experiment: Agonist activity at human VIPR1 expressed in CHOK1 cells assessed as intracellular cAMP accumulation after 60 mins by PathHunter assay; type: functional, cell-based
T1 sequence (P32241 whole entry): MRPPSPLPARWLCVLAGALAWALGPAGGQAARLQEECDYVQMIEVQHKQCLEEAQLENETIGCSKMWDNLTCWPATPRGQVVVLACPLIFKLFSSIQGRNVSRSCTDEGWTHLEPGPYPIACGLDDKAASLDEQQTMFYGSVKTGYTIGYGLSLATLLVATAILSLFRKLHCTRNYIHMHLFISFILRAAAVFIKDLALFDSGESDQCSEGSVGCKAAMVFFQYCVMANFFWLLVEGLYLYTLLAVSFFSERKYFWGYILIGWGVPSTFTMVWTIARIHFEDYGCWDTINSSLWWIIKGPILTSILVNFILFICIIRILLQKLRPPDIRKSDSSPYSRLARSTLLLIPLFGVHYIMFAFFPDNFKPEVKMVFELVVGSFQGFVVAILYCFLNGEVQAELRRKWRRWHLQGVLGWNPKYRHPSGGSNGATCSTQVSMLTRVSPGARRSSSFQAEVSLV

[5] = biological target: T2, Vasoactive intestinal polypeptide receptor 2 (Homo sapiens, UniProt P41587); experiment: Agonist activity at human VIPR2 expressed in CHOK1 cells assessed as intracellular cAMP accumulation after 60 mins by PathHunter assay; type: functional, cell-based
T2 sequence (P41587 whole entry): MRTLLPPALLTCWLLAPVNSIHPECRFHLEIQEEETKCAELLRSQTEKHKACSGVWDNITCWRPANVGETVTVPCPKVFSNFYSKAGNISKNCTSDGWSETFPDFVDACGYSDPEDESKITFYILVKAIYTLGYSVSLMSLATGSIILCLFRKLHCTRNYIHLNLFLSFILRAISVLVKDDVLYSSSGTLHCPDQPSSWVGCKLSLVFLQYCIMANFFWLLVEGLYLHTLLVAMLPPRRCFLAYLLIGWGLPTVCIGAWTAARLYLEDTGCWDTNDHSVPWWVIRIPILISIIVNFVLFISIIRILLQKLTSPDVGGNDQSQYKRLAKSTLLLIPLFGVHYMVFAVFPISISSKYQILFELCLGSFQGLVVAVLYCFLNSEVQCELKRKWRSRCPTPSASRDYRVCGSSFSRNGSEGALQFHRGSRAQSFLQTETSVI

pEC50 [4]	pEC50 [5]	SMILES	Survival (Mus musculus [1]) [%]	Activity (Mus musculus [2])	Activity (Mus musculus [3])
–	–	CC(=O)N[C@@H](Cc1cnc[nH]1)C(=O)N[C@H]1CCC[C@@H]1C(=O)N[C@@H](CC(=O)O)C(=O)N[C@@H](C)C(=O)N[C@H]1CCC[C@@H]1C(=O)N[C@@H](Cc1ccccc1)C(=O)N[C@H](C(=O)N[C@@H](CCC(=O)O)C(=O)N[C@@H](CC(N)=O)C(=O)N[C@@H](Cc1ccc(O)cc1)C(=O)N[C@H](C(=O)N[C@@H](CCCCN)C(=O)N[C@@H](CC(C)C)C(=O)N[C@@H](CCCNC(=N)N)C(=O)N[C@@H](CCCCN)C(=O)NC(CCC(N)=O)CC(=O)N[C@@H](CC(C)C)C(=O)N[C@@H](C)C(=O)N[C@@H](C)C(=O)N[C@H]1CNC[C@@H]1C(=O)N[C@@H](CCCCN)C(=O)N[C@@H](Cc1ccc(O)cc1)C(=O)N[C@H]1CCC[C@@H]1C(=O)N[C@@H](CC(N)=O)C(=O)N[C@@H](CC(=O)O)C(=O)N[C@@H](CC(C)C)C(=O)NC(CCCCN)CC(=O)N[C@@H](CCCCN)C(=O)NCC(=O)NCCC(=O)NC(CC(=O)O)C(C)O)[C@@H](C)O)[C@@H](C)O (stereo partly drawn) (Ac-H[X1]DA[X1]FTENYTKLRK[ξβ3hQ]LAA[X2]KY[X1]NDL[ξβ3hK]KG[βAla][ξβ3hT]-OH)	79.7	Dose-dependent effect	Active
8.25	5.31	CC[C@H](C)[C@H](NC(=O)[C@H](C)NC(=O)[C@H](CC(N)=O)NC(=O)CC(CC(C)C)NC(=O)[C@H](Cc1ccc(O)cc1)NC(=O)[C@H](CCCCN)NC(=O)[C@H](CCCCN)NC(=O)CC(NC(=O)[C@H](C)NC(=O)[C@H](CC(C)C)NC(=O)[C@H](CCC(N)=O)NC(=O)CC(CCCCN)NC(=O)[C@H](CCCNC(=N)N)NC(=O)[C@H](CC(C)C)NC(=O)[C@H](CCCNC(=N)N)NC(=O)CC(NC(=O)[C@H](Cc1ccc(O)cc1)NC(=O)[C@H](CC(N)=O)NC(=O)[C@H](CC(=O)O)NC(=O)[C@@H](NC(=O)[C@H](Cc1ccccc1)NC(=O)[C@@H](NC(=O)[C@H](C)NC(=O)[C@H](CC(=O)O)NC(=O)[C@H]1CCC[C@@H]1NC(=O)[C@@H](N)Cc1cnc[nH]1)C(C)C)[C@@H](C)O)C(C)O)C(C)C)C(=O)NC(CC(=O)N[C@@H](CC(N)=O)C(=O)O)CC(C)C (stereo partly drawn) (H-H[X1]DAVFTDNY[ξβ3hT]RLR[ξβ3hK]QLA[ξβ3hV]KKY[ξβ3hL]NAI[ξβ3hL]N-OH)	–	–	–
9.45	7.10	CC[C@H](C)[C@H](NC(=O)[C@H](C)NC(=O)[C@H](CC(N)=O)NC(=O)CC(CC(C)C)NC(=O)[C@H](Cc1ccc(O)cc1)NC(=O)[C@H](CCCCN)NC(=O)[C@H](CCCCN)NC(=O)CC(NC(=O)[C@H](C)NC(=O)[C@H](CC(C)C)NC(=O)[C@H](CCC(N)=O)NC(=O)CC(CCCCN)NC(=O)[C@H](CCCNC(=N)N)NC(=O)[C@H](CC(C)C)NC(=O)[C@H](CCCNC(=N)N)NC(=O)CC(NC(=O)[C@H](Cc1ccc(O)cc1)NC(=O)[C@H](CC(N)=O)NC(=O)[C@H](CC(=O)O)NC(=O)[C@@H](NC(=O)[C@H](Cc1ccccc1)NC(=O)[C@H]1CCC[C@@H]1NC(=O)[C@H](C)NC(=O)[C@H](CC(=O)O)NC(=O)[C@H]1CCC[C@@H]1NC(=O)[C@@H](N)Cc1cnc[nH]1)[C@@H](C)O)C(C)O)C(C)C)C(=O)NC(CC(=O)N[C@@H](CC(N)=O)C(=O)O)CC(C)C (stereo partly drawn) (H-H[X1]DA[X1]FTDNY[ξβ3hT]RLR[ξβ3hK]QLA[ξβ3hV]KKY[ξβ3hL]NAI[ξβ3hL]N-OH)	–	–	–
6.03	7.02	CC(C)C[C@H](NC(=O)[C@H](CC(=O)O)NC(=O)[C@H](CC(N)=O)NC(=O)[C@H]1CCC[C@@H]1NC(=O)[C@H](Cc1ccc(O)cc1)NC(=O)[C@H](CCCCN)NC(=O)[C@H]1CNC[C@@H]1NC(=O)[C@H](C)NC(=O)[C@H](C)NC(=O)[C@H](CC(C)C)NC(=O)[C@H](CCC(N)=O)NC(=O)[C@H](CCCCN)NC(=O)[C@H](CCCNC(=N)N)NC(=O)[C@H](CC(C)C)NC(=O)[C@H](CCCCN)NC(=O)[C@@H](NC(=O)CC(Cc1ccc(O)cc1)NC(=O)CC(CC(N)=O)NC(=O)[C@H](CCC(=O)O)NC(=O)[C@@H](NC(=O)[C@H](Cc1ccccc1)NC(=O)[C@H]1CCC[C@@H]1NC(=O)[C@H](C)NC(=O)[C@H](CC(=O)O)NC(=O)[C@H]1CCC[C@@H]1NC(=O)[C@@H](N)Cc1cnc[nH]1)[C@@H](C)O)[C@@H](C)O)C(=O)NC(CCCCN)CC(=O)N[C@@H](CCCCN)C(=O)NCC(=O)NCCC(=O)N[C@H](C(=O)O)[C@@H](C)O (stereo partly drawn) (H-H[X1]DA[X1]FTE[ξβ3hN][ξβ3hY]TKLRKQLAA[X2]KY[X1]NDL[ξβ3hK]KG[βAla]T-OH)	–	–	–
8.35	6.58	CC[C@H](C)[C@H](NC(=O)[C@H](C)NC(=O)[C@H](CC(N)=O)NC(=O)CC(CC(C)C)NC(=O)[C@H](Cc1ccc(O)cc1)NC(=O)[C@H](CCCCN)NC(=O)[C@H](CCCCN)NC(=O)CC(NC(=O)[C@H](C)NC(=O)[C@H](CC(C)C)NC(=O)[C@H](CCC(N)=O)NC(=O)CC(CCCCN)NC(=O)[C@H](CCCNC(=N)N)NC(=O)[C@H](CC(C)C)NC(=O)[C@H](CCCNC(=N)N)NC(=O)CC(NC(=O)[C@H](Cc1ccc(O)cc1)NC(=O)[C@H](CC(N)=O)NC(=O)[C@H](CC(=O)O)NC(=O)[C@@H](NC(=O)[C@H](Cc1ccccc1)NC(=O)CC(NC(=O)[C@H](C)NC(=O)[C@H](CC(=O)O)NC(=O)[C@H]1CCC[C@@H]1NC(=O)[C@@H](N)Cc1cnc[nH]1)C(C)C)[C@@H](C)O)C(C)O)C(C)C)C(=O)NC(CC(=O)N[C@@H](CC(N)=O)C(=O)O)CC(C)C (stereo partly drawn) (H-H[X1]DA[ξβ3hV]FTDNY[ξβ3hT]RLR[ξβ3hK]QLA[ξβ3hV]KKY[ξβ3hL]NAI[ξβ3hL]N-OH)	–	–	–
7.19	6.14	CC[C@H](C)[C@H](NC(=O)[C@H](C)NC(=O)[C@H](CC(N)=O)NC(=O)CC(CC(C)C)NC(=O)[C@H](Cc1ccc(O)cc1)NC(=O)[C@H](CCCCN)NC(=O)[C@H](CCCCN)NC(=O)CC(NC(=O)[C@H](C)NC(=O)[C@H](CC(C)C)NC(=O)[C@H](CCC(N)=O)NC(=O)CC(CCCCN)NC(=O)[C@H](CCCNC(=N)N)NC(=O)[C@H](CC(C)C)NC(=O)[C@H](CCCNC(=N)N)NC(=O)CC(NC(=O)[C@H](Cc1ccc(O)cc1)NC(=O)[C@H](CC(N)=O)NC(=O)[C@H](CC(=O)O)NC(=O)[C@@H](NC(=O)[C@H](Cc1ccccc1)NC(=O)CC(NC(=O)[C@H](C)NC(=O)[C@H](CC(=O)O)NC(=O)CC(CO)NC(=O)[C@@H](N)Cc1cnc[nH]1)C(C)C)[C@@H](C)O)C(C)O)C(C)C)C(=O)NC(CC(=O)N[C@@H](CC(N)=O)C(=O)O)CC(C)C (stereo partly drawn) (H-H[ξβ3hS]DA[ξβ3hV]FTDNY[ξβ3hT]RLR[ξβ3hK]QLA[ξβ3hV]KKY[ξβ3hL]NAI[ξβ3hL]N-OH)	–	–	–
3.53	6.30	CC[C@H](C)[C@H](NC(=O)[C@H](C)NC(=O)[C@H](CC(N)=O)NC(=O)CC(CC(C)C)NC(=O)[C@H](Cc1ccc(O)cc1)NC(=O)[C@H](CCCCN)NC(=O)[C@H](CCCCN)NC(=O)CC(NC(=O)[C@H](C)NC(=O)[C@H](CC(C)C)NC(=O)[C@H](CCC(N)=O)NC(=O)CC(CCCCN)NC(=O)[C@H](CCCNC(=N)N)NC(=O)[C@H](CC(C)C)NC(=O)[C@H](CCCNC(=N)N)NC(=O)CC(NC(=O)[C@H](Cc1ccc(O)cc1)NC(=O)CC(CC(N)=O)NC(=O)[C@H](CC(=O)O)NC(=O)[C@@H](NC(=O)[C@H](Cc1ccccc1)NC(=O)CC(NC(=O)[C@H](C)NC(=O)[C@H](CC(=O)O)NC(=O)CC(CO)NC(=O)[C@@H](N)Cc1cnc[nH]1)C(C)C)[C@@H](C)O)C(C)O)C(C)C)C(=O)NC(CC(=O)N[C@@H](CC(N)=O)C(=O)O)CC(C)C (stereo partly drawn) (H-H[ξβ3hS]DA[ξβ3hV]FTD[ξβ3hN]Y[ξβ3hT]RLR[ξβ3hK]QLA[ξβ3hV]KKY[ξβ3hL]NAI[ξβ3hL]N-OH)	–	–	–
